Measured values as given in the supplement of paper PMC10307832.

What follows are cell lines tested with O=c1ncccn1[C@@H]1O[C@H](CO)[C@@H](O)[C@H]1O [Zebularine] + COc1cccc2cc(-c3nc([C@H]4CC[C@H](C(=O)O)CC4)n4ncnc(N)c34)[nH]c12 [OSI-027] (partner 0.5 µM) (assay: relative viability (nuclei count vs DMSO), 5 days (fraction); higher = more cells survive). Conditions: first compound 1 µM.
How it was run: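 For relative viability, nuclei counts in treated wells were divided by those in vehicle wells. Lung cancer cell lines had been pin-tool dosed in 1536-well plates the day after seeding and cultured for 5 days, then fixed and stained in one step (final 0.05% Triton X-100, 1% formaldehyde, 1 ug/ml Hoechst) and imaged at 4×. Doses were one drug alone or a fixed anchor-drug dose plus five library-drug doses (not always all listed) in √10 steps, and values are duplicate-plate medians.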
With NCI-H2342 the relative viability was 0.709. In the case of NCI-H1623, the relative viability was 0.428. Cell Line NCI-H727 has a relative viability of 0.52. Cell Line NCI-H1650 has a relative viability of 0.842. NCI-H1993 was tested, and the relative viability was 0.532. Work on SW 1573 yielded a relative viability of 0.603. NCI-H838 was tested, and the relative viability was 0.405. Cell Line LCLC-103H has a relative viability of 0.474. In the case of NCI-H520, the relative viability was 0.281. NCI-H2126 showed a relative viability of 0.721. Cell Line EMC-BAC-2 has a relative viability of 0.406. NCI-H2085 was tested, and the relative viability was 0.737. HCC-366 was tested, and the relative viability was 1.02. NCI-H1666 was tested, and the relative viability was 0.721. Work on NCI-H596 yielded a relative viability of 0.696. Work on LK-2 yielded a relative viability of 0.187. NCI-H2087 was tested, and the relative viability was 0.379. NCI-H1648 showed a relative viability of 0.27. SK-MES-1 showed a relative viability of 0.707. Work on H3255 yielded a relative viability of 0.605. Work on COR-L23 yielded a relative viability of 1.07. COR-L 105 gave a relative viability of 0.763. Work on LOU-NH91 yielded a relative viability of 0.746. With ChaGo-K-1 the relative viability was 0.66. Work on NCI-H2170 yielded a relative viability of 0.86. Work on NCI-H2405 yielded a relative viability of 0.672. With HOP-62 the relative viability was 0.945. Work on HCC-44 yielded a relative viability of 0.627. For NCI-H522, the relative viability was 0.769. Cell Line SW 900 has a relative viability of 0.842. For NCI-H441, the relative viability was 0.817. For NCI-H1395, the relative viability was 0.65. Cell Line NCI-H1793 has a relative viability of 0.26.

Same assay, conditions: first compound 3.162 µM
For NCI-H2342, the relative viability was 0.621. In the case of NCI-H1623, the relative viability was 0.397. NCI-H727 showed a relative viability of 0.54. Cell Line NCI-H1650 has a relative viability of 0.663. Cell Line NCI-H1993 has a relative viability of 0.545. In the case of SW 1573, the relative viability was 0.606. NCI-H838 was tested, and the relative viability was 0.377. LCLC-103H showed a relative viability of 0.434. NCI-H520 gave a relative viability of 0.23. NCI-H2126 was tested, and the relative viability was 0.718. In the case of EMC-BAC-2, the relative viability was 0.366. For NCI-H2085, the relative viability was 0.537. HCC-366 was tested, and the relative viability was 0.831. For NCI-H1666, the relative viability was 0.785. NCI-H596 was tested, and the relative viability was 0.78. Work on LK-2 yielded a relative viability of 0.181. Cell Line NCI-H2087 has a relative viability of 0.457. Cell Line NCI-H1648 has a relative viability of 0.314. For SK-MES-1, the relative viability was 0.606. Cell Line H3255 has a relative viability of 0.522. COR-L23 gave a relative viability of 0.794. Work on COR-L 105 yielded a relative viability of 0.642. With LOU-NH91 the relative viability was 0.7. Work on ChaGo-K-1 yielded a relative viability of 0.593. With NCI-H2170 the relative viability was 0.63. NCI-H2405 showed a relative viability of 0.597. Work on HOP-62 yielded a relative viability of 0.745. Work on HCC-44 yielded a relative viability of 0.462. NCI-H522 gave a relative viability of 0.544. SW 900 gave a relative viability of 0.621. NCI-H441 showed a relative viability of 0.595. Work on NCI-H1395 yielded a relative viability of 0.58. Cell Line NCI-H1793 has a relative viability of 0.215.

Same assay, conditions: first compound 10 µM
NCI-H2342 gave a relative viability of 0.589. NCI-H1623 showed a relative viability of 0.407. With NCI-H727 the relative viability was 0.522. In the case of NCI-H1650, the relative viability was 0.285. NCI-H1993 showed a relative viability of 0.52. NCI-H838 showed a relative viability of 0.355. Cell Line LCLC-103H has a relative viability of 0.321. NCI-H520 was tested, and the relative viability was 0.266. Cell Line NCI-H2126 has a relative viability of 0.619. Work on EMC-BAC-2 yielded a relative viability of 0.341. In the case of NCI-H2085, the relative viability was 0.602. With HCC-366 the relative viability was 0.558. For NCI-H1666, the relative viability was 0.634. In the case of NCI-H596, the relative viability was 0.593. LK-2 showed a relative viability of 0.195. Cell Line NCI-H2087 has a relative viability of 0.286. Cell Line NCI-H1648 has a relative viability of 0.244. Cell Line SK-MES-1 has a relative viability of 0.454. With H3255 the relative viability was 0.43. Cell Line COR-L23 has a relative viability of 0.383. COR-L 105 was tested, and the relative viability was 0.566. For LOU-NH91, the relative viability was 0.66. With ChaGo-K-1 the relative viability was 0.331. In the case of NCI-H2170, the relative viability was 0.569. Work on NCI-H2405 yielded a relative viability of 0.592. With HOP-62 the relative viability was 0.493. HCC-44 gave a relative viability of 0.435. In the case of NCI-H522, the relative viability was 0.683. Work on SW 900 yielded a relative viability of 0.306. Cell Line NCI-H441 has a relative viability of 0.401. With NCI-H1395 the relative viability was 0.553.

Same assay, conditions: first compound 31.62 µM
NCI-H2342 gave a relative viability of 0.626. With NCI-H1623 the relative viability was 0.561. NCI-H727 showed a relative viability of 0.674. NCI-H1650 gave a relative viability of 0.834. With NCI-H1993 the relative viability was 0.543. In the case of SW 1573, the relative viability was 0.506. NCI-H838 showed a relative viability of 0.348. Work on LCLC-103H yielded a relative viability of 0.414. NCI-H520 gave a relative viability of 0.298. With NCI-H2126 the relative viability was 0.8. Cell Line EMC-BAC-2 has a relative viability of 0.387. Work on NCI-H2085 yielded a relative viability of 0.769. HCC-366 gave a relative viability of 0.807. NCI-H1666 showed a relative viability of 0.947. Cell Line NCI-H596 has a relative viability of 0.708. LK-2 was tested, and the relative viability was 0.202. Work on NCI-H2087 yielded a relative viability of 0.508. Work on NCI-H1648 yielded a relative viability of 0.253. SK-MES-1 was tested, and the relative viability was 0.514. For H3255, the relative viability was 0.689. Work on COR-L23 yielded a relative viability of 0.452. With COR-L 105 the relative viability was 0.697. For LOU-NH91, the relative viability was 0.699. With ChaGo-K-1 the relative viability was 0.239. Cell Line NCI-H2170 has a relative viability of 0.678. Cell Line NCI-H2405 has a relative viability of 0.676. Cell Line HOP-62 has a relative viability of 0.465. Work on HCC-44 yielded a relative viability of 0.398. NCI-H522 showed a relative viability of 0.676. In the case of SW 900, the relative viability was 0.543. With NCI-H441 the relative viability was 0.25. With NCI-H1395 the relative viability was 0.531. NCI-H1793 showed a relative viability of 0.288.

Same assay, conditions: first compound 100 µM
In the case of NCI-H2342, the relative viability was 0.627. NCI-H1623 gave a relative viability of 0.411. NCI-H727 showed a relative viability of 0.446. NCI-H1650 showed a relative viability of 0.416. NCI-H1993 showed a relative viability of 0.498. SW 1573 showed a relative viability of 0.443. NCI-H838 was tested, and the relative viability was 0.258. In the case of LCLC-103H, the relative viability was 0.462. Cell Line NCI-H520 has a relative viability of 0.239. NCI-H2126 showed a relative viability of 0.602. EMC-BAC-2 showed a relative viability of 0.368. NCI-H2085 showed a relative viability of 0.516. HCC-366 was tested, and the relative viability was 0.253. Cell Line NCI-H1666 has a relative viability of 0.979. NCI-H596 gave a relative viability of 0.559. Work on LK-2 yielded a relative viability of 0.162. NCI-H2087 showed a relative viability of 0.27. NCI-H1648 showed a relative viability of 0.249. With SK-MES-1 the relative viability was 0.288. In the case of H3255, the relative viability was 0.487. In the case of COR-L23, the relative viability was 0.236. Cell Line COR-L 105 has a relative viability of 0.684. For LOU-NH91, the relative viability was 0.571. ChaGo-K-1 gave a relative viability of 0.23. NCI-H2170 gave a relative viability of 0.432. With NCI-H2405 the relative viability was 0.547. Work on HOP-62 yielded a relative viability of 0.319. Work on HCC-44 yielded a relative viability of 0.364.
